Patent US12630550B2, “Pharmacophore for trail induction” (THE SCRIPPS RESEARCH INSTITUTE, priority 2014, dated 2026)

System: TRAIL mRNA expression
Conditions: RAW 264.7; doses as high as 10 μM or prolonged exposure
Protocol: RAW 264.7 cells (ATCC TIB-71) were maintained in growth medium of Dulbecco's Modified Eagle's Medium (DMEM with 4.5 g/L glucose and pyruvate, Gibco BRL, Invitrogen Corp., USA) supplemented with L-glutamine, penicillin/streptomycin, non-essential amino acids (100× stocks, Invitrogen Corp.), 10 mM HEPES, pH 7.4 (1 M stock, Invitrogen), and 10% Fetal Bovine Serum (FBS, Hyclone); (V. V. Kravchenko, R. J. Ulevitch, G. F. Kaufmann, Methods Mol. Biol. 2011, 692, 133-145).
Cells were plated in 6-well plates (Corning Costar 3506) diluted 1:5 in 3 mL growth medium, media was changed after cells had adhered. After 12 h incubation, cells were treated with described concentration of compound in DMSO, and incubated in the presence of that compound or vehicle for the described amount of time. At this time, media was removed and cells were treated with TRIzol reagent (Life Technologies), and RNA extracted via included protocol. RNA concentration determined using a Hitachi U-2000 UV-Vis Spectrophotometer and samples diluted to 12 μg/5 μL in H2O. […]

## Cc1ccccc1CN1C2=NCCN2C(=O)C2=C1CCN(Cc1ccccc1)C2 [Compound 1, 7-Benzyl-10-(2-methylbenzyl)-2,6,7,8,9,10-hexahydroimidazo[1,2-a]pyrido[4,3-d]pyrimidin-5(3H)-one, reference compound]
  change in TRAIL mRNA expression over controls: No change in TRAIL mRNA expression over controls
